How the values were obtained:
Staphylococcus aureus [1] = experiment: Antibacterial activity against Staphylococcus aureus ATCC 25923 after 24 hrs by microdilution method; format: functional
Staphylococcus aureus [2] = experiment: Antibacterial activity against Staphylococcus aureus ATCC 6538 after 24 hrs by microdilution method; format: functional
Pseudomonas aeruginosa [3] = experiment: Antibacterial activity against Pseudomonas aeruginosa ATCC 15442 after 24 hrs by microdilution method; format: functional
Escherichia coli [4] = experiment: Antibacterial activity against Escherichia coli ATCC 25922 after 24 hrs by microdilution method; format: functional
Staphylococcus aureus [5] = experiment: Antibiofilm activity against Staphylococcus aureus ATCC 25923 after 24 hrs by crystal violet staining based assay; format: functional
Staphylococcus aureus [6] = experiment: Antibiofilm activity against Staphylococcus aureus ATCC 6538 at 100 ug/ml after 24 hrs by crystal violet staining based assay; format: functional
Pseudomonas aeruginosa [7] = experiment: Antibiofilm activity against Pseudomonas aeruginosa ATCC 15442 at 100 ug/ml after 24 hrs by crystal violet staining based assay; format: functional
Escherichia coli [8] = experiment: Antibiofilm activity against Escherichia coli ATCC 25922 at 100 ug/ml after 24 hrs by crystal violet staining based assay; format: functional
[9] = Inhibition of Staphylococcus aureus ATCC 25923 sortase A by FRET assay
HS27 = experiment: Cytotoxicity against human Hs27 cells assessed as cell viability at 0.1 to 1 uM after 72 hrs by SRB assay; format: cell-based; conditions: hs27, 72 h, dose 0.1-1 µM
Pseudomonas aeruginosa [10] = experiment: Antibiofilm activity against Pseudomonas aeruginosa ATCC 15442 after 24 hrs by crystal violet staining based assay; format: functional
Escherichia coli [11] = experiment: Antibiofilm activity against Escherichia coli ATCC 25922 after 24 hrs by crystal violet staining based assay; format: functional
Staphylococcus aureus [12] = experiment: Antibiofilm activity against Staphylococcus aureus ATCC 25923 at 100 ug/ml after 24 hrs by crystal violet staining based assay; format: functional

Structure (SMILES) | MIC (Staphylococcus aureus [1]) [µg/mL] | MIC (Staphylococcus aureus [2]) [µg/mL] | MIC (Pseudomonas aeruginosa [3]) [µg/mL] | MIC (Escherichia coli [4]) [µg/mL] | MBIC50 (Staphylococcus aureus [5]) [µM] | inhibition at 100 µg/mL (Staphylococcus aureus [6]) [%] | inhibition at 100 µg/mL (Pseudomonas aeruginosa [7]) [%] | inhibition at 100 µg/mL (Escherichia coli [8]) [%] | IC50 [9] [nM] | Activity (HS27) | MBIC50 (Pseudomonas aeruginosa [10]) [µM] | MBIC50 (Escherichia coli [11]) [µM] | inhibition at 100 µg/mL (Staphylococcus aureus [12]) [%]
Cn1cc(C(=O)c2nc(-c3cn(C)c4ccc(Br)cc34)no2)c2cc(F)ccc21 | > 100 | > 100 | > 100 | > 100 | 9.7 | < 15 | < 15 | < 15 | 2200 | Non-Toxic |  |  | 
COc1ccc2c(c1)c(C(=O)c1nc(-c3cn(C)c4ccc(OC)cc34)no1)cn2C | > 100 | > 100 | > 100 | > 100 | 2.2 | < 15 |  | < 15 | 2200 | Non-Toxic | 74.7 |  | 
COc1ccc2c(c1)c(C(=O)c1nc(-c3cn(C)c4ccccc34)no1)cn2C | > 100 | > 100 | > 100 | > 100 | 33.1 | < 15 |  |  |  |  | 30 | 55.4 | 
Cn1cc(C(=O)c2nc(-c3cn(C)c4ccc(F)cc34)no2)c2cc(Br)ccc21 | > 100 | > 100 | > 100 | > 100 | 29.6 | < 15 | < 15 |  |  |  |  | 45.7 | 
COc1ccc2c(c1)c(-c1noc(C(=O)c3cn(C)c4ccccc34)n1)cn2C | > 100 | > 100 | > 100 | > 100 |  | < 15 |  | < 15 |  |  | 47.4 |  | < 15
COc1ccc2c(c1)c(-c1noc(C(=O)c3cn(C)c4ccc(F)cc34)n1)cn2C | > 100 | > 100 | > 100 | > 100 | 14.8 | < 15 |  | < 15 |  |  | 52.1 |  | 
Cn1cc(C(=O)c2nc(-c3cn(C)c4ccc(F)cc34)no2)c2ccccc21 | > 100 | > 100 | > 100 | > 100 | 30.4 | < 15 |  | < 15 |  |  | 24 |  | 
Cn1cc(C(=O)c2nc(-c3cn(C)c4ccc(Cl)cc34)no2)c2ccccc21 | > 100 | > 100 | > 100 | > 100 | 47.6 | < 15 |  |  |  |  | 53.5 | 59.6 | 
COc1ccc2c(c1)c(C(=O)c1nc(-c3cn(C)c4ccc(Cl)cc34)no1)cn2C | > 100 | > 100 | > 100 | > 100 |  | < 15 | < 15 | < 15 |  |  |  |  | < 15
